Columns and labels:
[1] = test system: HCMV AD169 clone with mutation in UL86 P586T; test: Susceptibility (IC50) of resistant HCMV AD169 clone P586T; assay type: cell-based, Human cytomegalovirus; settings: Human betaherpesvirus 5, read-out: IC 50, P586T
Method: (§1) The test compounds are employed as 50 millimolar (mM) solutions in dimethyl sulfoxide (DMSO). Ganciclovir®, Foscarnet® and Cidofovir® are used as reference compounds. After addition of in each case 2 μl of the 50, 5, 0.5 and 0.05 mM DMSO stock solutions to 98 μl portions of cell culture medium in row 2 A-H for duplicate determinations, 1:2 dilutions are carried out with 50 μl portions of medium up to row 11 of the 96-well plate. The wells in rows 1 and 12 each contain 50 μl of medium. 150 μl of a suspension of 1×10^4 cells (human prepuce fibroblasts [NHDF]) are then pipetted into each of the wells (row 1=cell control) and, in rows 2-12, a mixture of HCMV-infected and uninfected NHDF cells (M.O.I.=0.001-0.002), i.e. 1-2 infected cells per 1000 uninfected cells. Row 12 (without substance) serves as virus control. The final test concentrations are 250-0.0005 μM. The plates are incubated at 37° C./5% CO2 for 6 days, i.e. until all the cells are infected in the virus controls (100% cytopathogenic effect [CPE]). The wells are then fixed and stained by adding a mixture of formalin and Giemsa's dye (30 minutes), washed with double-distilled water and dried in a drying oven at 50° C. The plates are then assessed visually using an overhead microscope (plaque multiplier from Technomara).
(§2) For this purpose, NHDF cells are seeded in tissue culture vessels. 5×10^3 cells per well are seeded in 96-well plates and infected with cell-free HCMV AD169 with an moi of 0.03. The infections are cultivated under substance pressure which corresponds to 10 times the IC50 of the substance. Preferably, 30-100 96-well plates inoculated as described are made up. […] Finally, viral stocks are produced as described above and frozen. Serial ten-fold dilution of the virus-infected cells or of the cell culture supernatant of the virus-infected cells is followed by determination of the titer on 24-well plates of confluent NHDF cells after vital staining with neutral red. Finally, the susceptibility to various substances (IC50 determination) is determined as described above.
(§3) The HCMVAD169 mutants selected as described above are grown in vitro on human embryonic prepuce fibroblasts (NHDF cells) under substance pressure (10×IC50 HCMVAD169). After infection of the NHDF cells with a multiplicity of infection (M.O.I) of 0.01, the virus-infected cells are harvested 5-10 days later, and the total DNA is isolated from these cells with the aid of established standard methods (e.g. phenol extraction and ethanol precipitation). Qiagen Sequencing Services (Qiagen, Hilden) determined, after amplification of the viral UL86 gene by PCR, the DNA sequence, which was then transcribed into protein sequence. Compared with the initial strain HCMV AD169, the differences shown in table 2 were detectable in the protein sequence of the major capsid protein (UL86) in the resistant viruses. The IC50 values [μM] of various substances on these mutants compared with the initial strain are likewise indicated. (n.d.=not measured). […] Depending on the nature of the substance, certain mutations lead to various extents of resistance.

[2] = test system: HCMV AD169 clone with mutation in UL86 R682H; test: Susceptibility (IC50) of resistant HCMV AD169 clone R682H; assay type: cell-based, Human cytomegalovirus; settings: Human betaherpesvirus 5, read-out: IC 50, R682H
Method: as §1, §2, §3

[3] = test system: HCMV AD169 clone with mutation in UL86 E1320Q; test: Susceptibility (IC50) of resistant HCMV AD169 clone E1320Q; assay type: cell-based, Human cytomegalovirus; settings: Human betaherpesvirus 5, read-out: IC 50, E1320Q
Method: as §1, §2, §3

[4] = test system: Human cytomegalovirus (HCMV); test: Anti-HCMV cytopathogenicity test; assay type: cell-based; settings: for IC50: Human betaherpesvirus 5, 144 h, NHDF cells, 6 days, cytopathogenic effect, read-out: IC50, antiviral activity in vitro; for SI (selectivity index): antiviral activity in vitro
Method: Human cytomegalovirus (HCMV), DavisSmith (ATCC VR807) or AD169 (ATCC VR538) strain, is grown in vitro on human embryonic prepuce fibroblasts (NHDF cells). After the NHDF cells have been infected with a multiplicity of infection (M.O.I.) of 0.01, the virus-infected cells are harvested 5-10 days later and stored in the presence of minimal essential medium (MEM), 10% fetal calf serum (FCS) with 10% DMSO at −80° C. A cell-free stock is produced by removing only the cell culture supernatant and immediately freezing at −80° C. After serial ten-fold dilutions of the virus-infected cells or of the cell culture supernatant of the virus-infected cells (cell-free virus), the titer is determined on 24-well plates of confluent NHDF cells after vital staining with neutral red.
as §1

[5] = test system: HCMV AD169 clone with mutation in UL86 A689T; test: Susceptibility (IC50) of resistant HCMV AD169 clone A689T; assay type: cell-based, Human cytomegalovirus; settings: Human betaherpesvirus 5, read-out: IC 50, A689T
Method: as §1, §2, §3

[6] = test system: HCMV AD169 clone with mutation in UL86 K1338N; test: Susceptibility (IC50) of resistant HCMV AD169 clone K1338N; assay type: cell-based, Human cytomegalovirus; settings: Human betaherpesvirus 5, read-out: IC 50, K1338N
Method: as §1, §2, §3

[7] = test system: HCMV AD169 clone with mutation in UL86 D563N; test: Susceptibility (IC50) of resistant HCMV AD169 clone D563N; assay type: cell-based, Human cytomegalovirus; settings: Human betaherpesvirus 5, read-out: IC 50, D563N
Method: as §1, §2, §3

[8] = test system: HCMV AD169 clone with mutation in UL86 V601M; test: Susceptibility (IC50) of resistant HCMV AD169 clone V601M; assay type: cell-based, Human cytomegalovirus; settings: Human betaherpesvirus 5, read-out: IC 50, V601M
Method: as §1, §2, §3

[9] = test system: HCMV AD169 clone with mutation in UL86 P1189T; test: Susceptibility (IC50) of resistant HCMV AD169 clone P1189T; assay type: cell-based, Human cytomegalovirus; settings: Human betaherpesvirus 5, read-out: IC 50, P1189T
Method: as §1, §2, §3

[10] = test system: HCMV AD169 clone with mutation in UL86 Q1223R; test: Susceptibility (IC50) of resistant HCMV AD169 clone Q1223R; assay type: cell-based, Human cytomegalovirus; settings: Human betaherpesvirus 5, read-out: IC 50, Q1223R
Method: as §1, §2, §3

[11] = test system: HCMV AD169 clone with mutation in UL86 R435C; test: Susceptibility (IC50) of resistant HCMV AD169 clone R435C; assay type: cell-based, Human cytomegalovirus; settings: Human betaherpesvirus 5, read-out: IC 50, R435C
Method: as §1, §2, §3

[12] = test system: HCMV AD169 clone with mutation in UL86 A1226T; test: Susceptibility (IC50) of resistant HCMV AD169 clone A1226T; assay type: cell-based, Human cytomegalovirus; settings: Human betaherpesvirus 5, read-out: IC 50, A1226T
Method: as §1, §2, §3

[13] = test system: HCMV AD169 clone with mutation in UL86 D441N; test: Susceptibility (IC50) of resistant HCMV AD169 clone D441N; assay type: cell-based, Human cytomegalovirus; settings: Human betaherpesvirus 5, read-out: IC 50, D441N
Method: as §1, §2, §3

wild-type HCMV AD169 = test: Susceptibility (IC50) of HCMV AD169 wild-type; assay type: cell-based, Human cytomegalovirus; settings: Human betaherpesvirus 5, NHDF cells, read-out: IC 50, Wild-type
Method: as §1, §2, §3

SMILES | IC50 [1] [µM] | IC50 [2] [nM] | IC50 [3] [µM] | IC50 [4] [nM] | SI (selectivity index) [4] | IC50 [5] [nM] | IC50 [6] [µM] | IC50 [7] [µM] | IC50 [8] [µM] | IC50 [9] [nM] | IC50 [10] [µM] | IC50 [11] [nM] | IC50 [12] [nM] | IC50 [13] [nM] | IC50 (wild-type HCMV AD169) [nM] | melting point [°C]
CC(=O)Nc1ccc(NC(=O)Nc2ccc(F)c(Cl)c2)cc1 [Example 3, N-[4-({[(3-Chloro-4-fluorophenyl)amino]carbonyl}amino)phenyl]acetamide] | > 20 | > 20000 | > 20 | 500 | 40 | > 20000 | > 20 | > 20 | > 20 | > 20000 | > 20 | > 20000 | > 20000 | > 20000 | 500 | –
CCCCS(=O)(=O)Nc1cccc(NC(=O)Nc2ccc(F)c(Cl)c2)c1 [Example 5, N-[3-({[(3-Chloro-4-fluorophenyl)amino]carbonyl}amino)phenyl]-1-butanesulfonamide] | 0.8 | – | 9 | 140 | 70 | 400 | > 9 | 1.4 | 1.5 | – | 1.4 | 6000 | – | – | 140 | –
CC(C)n1c(-c2cccc(NC(=O)Nc3ccc(F)c(Cl)c3)c2)n[nH]c1=O [Example 6, 1-(3-Chloro-4-fluorophenyl)-3-[3-(4-isopropyl-5-oxo-4,5-dihydro-1H-[1,2,4]triazol-3-yl)phenyl]urea] | – | – | – | 400 | 150 | – | – | – | – | – | – | – | – | – | – | –
O=C(Nc1cccc(-c2n[nH]c(=O)n2C2CCCCC2)c1)Nc1ccc(F)c(Cl)c1 [Example 7, 1-(3-Chloro-4-fluorophenyl)-3-[3-(4-cyclohexyl-5-oxo-4,5-dihydro-1H-[1,2,4]triazol-3-yl)phenyl]urea] | 7.6 | – | 24 | 1500 | 30 | 4500 | 15 | 15 | 12 | – | 12 | 3000 | – | – | 1500 | –
Cc1cc(Cl)ccc1NC(=O)Nc1cccc(C2=NNC(=O)C2(C)C)c1 [Example 8, N-(4-Chloro-2-methylphenyl)-N′-[3-(4,4-dimethyl-5-oxo-4,5-dihydro-1H-pyrazol-3-yl)phenyl]urea] | > 21 | – | > 21 | 600 | 30 | > 21000 | > 21 | > 21 | > 21 | – | > 21 | 1300 | – | – | 600 | 226.8
Nc1nc(O)c2ncn(COC(CO)CO)c2n1 [Ganciclovir, reference compound] | 1 | 1000 | 1 | – | – | 1000 | 1 | 1 | 1 | 1000 | 1 | 1000 | 1000 | 1000 | 1000 | –

Reference: patent US20070004735A1, “Method for inhibiting the replication of herpes viruses” (priority 2003, published 2007)
